# Measured values as given in patent US10702568B2, “Compositions containing silymarin and sulfoalkyl ether cyclodextrin and methods of using the same” (UNIVERSITY OF KANSAS, priority 2015, dated 2020).
# Key:
# [1] = Silymarin saturated solubility with CAPTISOL® (Example 1, HPLC); details: for solubility: 25 °C, thermodynamic from solid, Solubility (mg/ml) of flavonolignan components of silymarin, saturated with excess silymarin
# Experimental: CAPTISOL® was dissolved in water to form four solutions with a CAPTISOL® concentration of 0.05 mol/L, 0.1 mol/L, 0.2 mol/L, and 0.3 mol/L respectively. 12 mg of silymarin powder (Sigma Aldrich) was added to 1 mL of each of the four CAPTISOL® solutions on Day 1, another 12 mg Silymarin powder was added on Day 3, and 19-22 mg Silymarin powder was added on Day 7 to ensure that silymarin reached its maximum solubility in each solution. The solutions were stirred in a water bath at 25° C. The solutions were then centrifuged prior to sampling. The supernatant was diluted in MeOH in preparation for HPLC assay.
# A reference standard was prepared by mixing silymarin with methanol to provide a methanol solution with a silymarin concentration of 0.1 mg/ml.
# HPLC was used to measure the relative concentrations of the different components of silymarin in each sample solution following the method described in Kuki et al., (2012) Chromatogram 75:175-180. The relative concentration of each component of silymarin was measured by comparing the normalized peak area units with that of the standard reference measured by the UV data at 288 nm and assuming equivalent extinction coefficients for all components.
# The relative molar amounts of the ten flavonolignan components of silymarin were calculated by dividing the normalized peak area of each component in a sample by the total normalized peak area of the sample.
# The concentration of each flavonolignan component of silymarin was calculated from the peak areas in Tables 1a and 1b and the total concentration of silymarin (0.1 mg/ml) in the reference sample, assuming constant extinction coefficients for each component.
# [2] = Silymarin solubility in water, CAPTISOL® solution and γ-cyclodextrin solution (Example 2, HPLC); format: physicochemical; details: for solubility: water, thermodynamic from solid, Solubility (mg/ml) of components of silymarin
# Experimental: The solutions were centrifuged for 10 min at 13K rpm. An aliquot of the supernatant was diluted 1:5 for Water, 1:25 for γ-Cyclodextrin and 1:100 for both 0.20 M CAPTISOL® and 0.20M HP-B-Cyclodextrin using MeOH as the diluent. The standard reference was prepared by dissolving silymarin in 10 mg/mL of DMSO and then diluted to 0.50 mg/mL using MeOH.
# The change of the saturated solubility of the various components of silymarin in each of the four types of samples can be seen in FIG. 4.
# The data shown in Table 6 is plotted in FIGS. 5 and 6. The change of the solubility of the various components of silymarin in each of the three samples can be seen in FIG. 5. The total mutual saturated solubility of all flavonolignan components can be seen in FIG. 6. […] The various components of silymarin also have increased solubility in the CAPTISOL® (0.2M) sample.
# [3] = Pharmacokinetic study in rat; format: in vivo; details: in vivo; for AUC(0-t): AUC(0-2 h) (ng · h/mL)
# Experimental: The Silymarin-CAPTISOL® complex was administered to rat to test its pharmacokinetic properties.
# On arrival rats were housed individually in cages at animal care facility in a temperature and humidity controlled room with a 12 h:12 h (light:dark) cycles. The rats were provided with free access to food and water for one week before using for experimental purpose. The 12 rats were equally divided into three groups—Group I: silymarin-CAPTISOL® complex with a CAPTISOL® concentration of 100 mM for oral administration; Group II: silymarin suspension (Control); and Group III: silymarin complex with a CAPTISOL® concentration of 100 mM for intravenous administration. The animals were fasted overnight with free access to water. On the day of experiment, the rat was removed from animal care facility and brought to the procedure lab. The animal was weighed and appropriate dosing volume was determined. For oral administration, rat's head was held in place by gently extending the head back and supporting the lower body. The gavage tube was placed in the mouth and advanced along the lower palate till the esophagus, and the silymarin was administered through the tube. For intravenous administration, the silymarin-CAPTISOL® complex was administered by slow bolus intravenous injection into the tail vein. Approximately 200 μL blood was drawn into heparin coated tubes at pre dose, 0.15, 0.5, 1, 2, 4, 8, 10 and 24 h for oral group II and for intravenous group III. The sampling time points were predose, 0.12, 0.25, 0.5, 1, 2, 4, 8 and 24 h through the jugular vein catheter. Plasma was harvested by centrifuging the blood at 4000 RPM for 5 min and stored frozen at −80±10° C. until analysis.
# Stored plasma was thawed just before performing the silymarin components analysis. 200 μL of acetonitrile containing 0.1% of ammonia was added to 50 μL of plasma, and this mixture was vortexed for 5 min and centrifuged at 4° C. for 5 min at 10,000 RPM. After centrifugation, the supernatant was separated and injected into HPLC for analysis of silymarin constituents taxifolin, silydianin, silychristin, silybin A, silybin B, isosilybin A and isosilybin B.
# The plasma concentration-time curves of silybin A, silybin B, isosilybin A, and isosilybin B in the Silymarin-CAPTISOL® sample of Group I and the control sample (silymarin suspension) are respectively shown in FIGS. 20A to 20D.
# [4] = Solubility of silymarin components in water (Example 10, HPLC); format: physicochemical; details: for solubility: water
# Experimental: (§1) Silymarin components including taxifolin, silydianin, silychristin, silybin A, silybin B, isosilybin A, and isosilybin B were tested for their solubility in water and also for their Log D value. The silymarin extract was obtained from Indena® (Indena Code: 9065110). The HPLC system consisted of Waters system equipped with performance PLUS inline degasser along dual λ absorbance detector set at 288 nm. The chromatographic separation of silymarin constituents was achieved on a Symmetry Shield RP18 column (150×4.6 mm, 5 μm); which was maintained at ambient room temperature conditions. The binary mobile phase system consisted of reservoir A (methanol: 10 mM ammonium acetate pH 5 [65:35 v/v]) and reservoir B (10 mM ammonium acetate, pH 5) were run as per gradient program (0-1.9 min: 25% A and 75% B; 2.0-14.9 min: 80% A and 20% B and 15-37.9 min: 80% A and 20% B and 38-40 min: 25% A and 75% B). The flow rate was 1 mL/min throughout the analytical run.
# [5] = Log D of silymarin components (octanol/buffer, HPLC); format: physicochemical; details: pH 7.4
# Experimental: as §1
# To determine the Log D of silymarin components, the silymarin extract (2 mg) was dissolved in 100% DMSO and then used for the experiment. Different buffers between pH ranges of 1.0 to 12 were prepared by using universal buffer stock containing 25 mM hydrochloric acid, 25 mM citric acid, 25 mM phosphoric acid, 30 mM boric acid and 20 mM sodium chloride. About 45 mL of universal buffer was titrated with Sodium hydroxide (5M) to obtain desired pH. A 10 μL of silymarin stock solution was spiked into Eppendorf tube containing 500 μL each of a buffer and presaturated octanol. This mixture was vortexed for 5 minutes and kept for shaking at room temperature. After 16 h, the mixture was centrifuged at 10,000 RPM for 30 minutes. After centrifugation buffer and octanol phases were separated, both phases were diluted with acetonitrile (1:1) and subject to HPLC analysis for quantitation of individual components of silymarin. The Log D values of each compound at a pH was determined by Log D (pH)=Log [Organic (peak area)/Aqueous (peak area)].
# [6] = 0.05 M CAPTISOL in water, aqueous with cosolvent or surfactant or cyclodextrin, CAPTISOL® (0.05M) in water
# [7] = 0.1 M CAPTISOL in water, aqueous with cosolvent or surfactant or cyclodextrin, CAPTISOL® (0.1M) in water
# [8] = 0.2 M CAPTISOL in water, aqueous with cosolvent or surfactant or cyclodextrin, CAPTISOL® (0.2M) in water
# [9] = 0.3 M CAPTISOL in water, aqueous with cosolvent or surfactant or cyclodextrin, CAPTISOL® (0.3M) in water
# [10] = CAPTISOL® (0.05M), saturated solubility
# [11] = CAPTISOL® (0.1M), saturated solubility
# [12] = CAPTISOL® (0.2M), saturated solubility
# [13] = CAPTISOL® (0.3M), saturated solubility
# [14] = MeOH standard (0.1 mg/ml), reference, share of total normalized peak area
# [15] = H2O, saturated solubility, share of total normalized peak area
# [16] = CAPTISOL® (0.2M) in water, saturated
# [17] = MeOH standard (0.5 mg/ml), reference
# [18] = γ-cyclodextrin (0.15M) (Cavamax) in water, saturated
# [19] = γ-cyclodextrin (0.15M), saturated
SMILES,"solubility [1, 6] [µg/mL]","solubility [1, 7] [µg/mL]","solubility [1, 8] [µg/mL]","solubility [1, 9] [µg/mL]","Percentages of flavonolignan components of silymarin in the sample [1, 10] [%]","Percentages of flavonolignan components of silymarin in the sample [1, 11] [%]","Percentages of flavonolignan components of silymarin in the sample [1, 12] [%]","Percentages of flavonolignan components of silymarin in the sample [1, 13] [%]","Percentages of flavonolignan components of silymarin in the sample [1, 14] [%]","solubility ([1]; water, H2O) [µg/mL]",solubility [2] [µg/mL],AUC(0-2 h) ([3]; po) [ng·h/mL],"Percentages of flavonolignan components of silymarin in the sample [1, 15] [%]",also measured
COc1cc([C@@H]2Oc3c(O)cc([C@H]4Oc5cc(O)cc(O)c5C(=O)[C@@H]4O)cc3[C@H]2CO)ccc1O [Silychristin A],9570,15300,25500,26900,41.07,39.70,38.52,37.52,22.28,460,440,–,–,–
COc1cc([C@@H]2Oc3cc([C@H]4Oc5cc(O)cc(O)c5C(=O)[C@@H]4O)ccc3O[C@H]2CO)ccc1O [Silybin B],5590,8930,13800,15800,24.01,23.18,20.90,21.96,32.00,50,30,395,7.72,"AUC(0-t) ([3]; iv): 5070 ng·h/mL; Cmax ([3]; iv, Cmax (ng/mL)): 12700 ng/mL; Tmax ([3]; iv, Tmax (h)): 7.2 min; Tmax ([3]; po): 37.8 min; Tmax ([3]; po, Tmax (h)): 30 min; solubility [4]: 21.9 µg/mL; Percentages of flavonolignan components of silymarin in the sample ([1]; H2O, saturated solubility, share of total normalized peak area, listed as silybin B): about 7.72%; logD at 16 h [5]: 1.99"
COc1cc([C@H]2Oc3c(O)cc([C@H]4Oc5cc(O)cc(O)c5C(=O)[C@@H]4O)cc3[C@@H]2CO)ccc1O [Silychristin B],930,1150,2320,2500,3.98,2.99,3.51,3.48,1.50,40,60,–,5.21,–
COc1cc([C@@H]2Oc3c(O)cc([C@H]4Oc5cc(O)cc(O)c5C(=O)[C@@H]4O)cc3[C@H]2CO)ccc1O [Silychristin],–,–,–,–,–,–,–,–,–,–,–,–,–,Solubility in water [4]: 170 µg/mL; Log D (7.4 pH) [5]: 0.53
"COc1cc([C@H]2Oc3cc([C@H]4Oc5cc(O)cc(O)c5C(=O)[C@H]4O)ccc3O[C@@H]2CO)ccc1O (relative stereo) [2,3-cis-silybin A]",–,–,–,–,–,–,–,–,–,–,–,–,–,"Solubility (mg/ml) of components of silymarin [2, 16]: 2.21 mg/mL; Percentages of components of silymarin flavonolignan in the sample ([2]; CAPTISOL® (0.2M), saturated): 3.47%; Percentages of components of silymarin flavonolignan in the sample ([2]; H2O, saturated): 1.88%; Solubility (mg/ml) of components of silymarin ([2]; H2O, saturated): 0.01 mg/mL; Solubility (mg/ml) of components of silymarin ([2]; MeOH standard (0.5 mg/ml silymarin, dissolved reference, not saturated)): 0.01 mg/mL; Percentages of components of silymarin flavonolignan in the sample [2, 17]: 1.54%; Solubility (mg/ml) of components of silymarin [2, 18]: 0.12 mg/mL; Percentages of components of silymarin flavonolignan in the sample [2, 19]: 1.56%"
COc1cc([C@H]2Oc3cc([C@H]4Oc5cc(O)cc(O)c5C(=O)[C@@H]4O)ccc3O[C@@H]2CO)ccc1O [Silybin A],2230,3800,6370,7330,9.55,9.86,9.64,10.22,25.35,20,30,271,3.15,"AUC(0-t) ([3]; iv): 3440 ng·h/mL; Cmax ([3]; iv, Cmax (ng/mL)): 7910 ng/mL; Tmax ([3]; iv, Tmax (h)): 7.2 min; % Fabs of silymarin-CAPTISOL® complex compared with silymarin alone ([3]; po): higher % Fabs; AUC of Silymarin-CAPTISOL® complex compared with the control sample ([3]; po): higher AUC; Cmax of Silymarin-CAPTISOL® complex compared with the control sample ([3]; po): higher Cmax; Tmax ([3]; po, Tmax (h)): 30 min; solubility [4]: 7.71 µg/mL; Percentages of flavonolignan components of silymarin in the sample ([1]; H2O, saturated solubility, share of total normalized peak area, listed as silybin A): about 3.15%; logD at 16 h [5]: 2.26"
"COc1cc([C@@H]2Oc3cc([C@H]4Oc5cc(O)cc(O)c5C(=O)[C@H]4O)ccc3O[C@H]2CO)ccc1O (relative stereo) [2,3-cis-silybin B]",–,–,–,–,–,–,–,–,–,–,–,–,–,"Solubility (mg/ml) of components of silymarin [2, 16]: 1.20 mg/mL; Percentages of components of silymarin flavonolignan in the sample ([2]; CAPTISOL® (0.2M), saturated): 1.89%; Percentages of components of silymarin flavonolignan in the sample ([2]; H2O, saturated): 0.75%; Solubility (mg/ml) of components of silymarin ([2]; H2O, saturated): 0.01 mg/mL; Percentages of components of silymarin flavonolignan in the sample [2, 17]: 0.99%; Solubility (mg/ml) of components of silymarin [2, 18]: 0.06 mg/mL; Percentages of components of silymarin flavonolignan in the sample [2, 19]: 0.74%"
COc1cc([C@@H]2Oc3ccc([C@H]4Oc5cc(O)cc(O)c5C(=O)[C@@H]4O)cc3O[C@H]2CO)ccc1O [Isosilybin B],–,–,–,–,–,–,–,–,–,–,–,433,–,AUC(0-2 h) ([3]; iv): 1417 ng·h/mL; Cmax ([3]; iv): 1308 ng/mL; Tmax ([3]; iv): 7.2 min; % Fabs of silymarin-CAPTISOL® complex compared with silymarin alone ([3]; po): higher % Fabs; AUC of Silymarin-CAPTISOL® complex compared with the control sample ([3]; po): higher AUC; Cmax of Silymarin-CAPTISOL® complex compared with the control sample ([3]; po): higher Cmax; Tmax ([3]; po): 30 min; Solubility in water [4]: 6.36 µg/mL; Log D (7.4 pH) [5]: 2.53
